Patent EP0135657B1, “Antibacterial drugs and/or feed concentrates” (priority 1983, dated 1985)

Tests used:
[1] = system: Bordatella bronchiseptica; assay: Minimum inhibitory concentration in vitro in broth containing phenol red and glucose (Difco); assay type: cell-based; settings: for Mindesthemmkonzentration durch Chlorchinaldol in Kombination verringert auf: fraction of the MIC of the substance alone, stated for the bacteria used, for Bordatella bronchiseptica as 1 order of magnitude; for Werte der Mindesthemmkonzentration [MIC-Werte] in mg/l in Bezug auf die Bakterienstämme Bordatella bronchiseptica: single substance, inhibits bacterial growth for 24 hours
From the text: (§1) Diese Feststellung wird durch die folgenden Versuchsergebnisse bestätigt. Die Mindesthemmkoncentrationen von Kombinationen von 2 bis 4 der obigen Verbindungen in erfindungsgemäßen Arzneimitteln beziehungsweise der einzelnen obigen Verbindungen als vergleichssubstanzen wurden in vitro gegen die Bakterienstämme Bordatella bronchiseptica und Pasteurella multocid in einer Phenolrot und Glucose enthaltenden Brühe [Hersteller: Firma Difco] bestimmt. In der folgenden Tabelle sind die Werte der Mindesthemmkonzentration [MIC-Werte] in mg/I, die den Bakterienzuwachs 24. Stunden lang hemmen, zusammengestellt.
(§2) Die Werte der Mindesthemmkonzentration [MIC-Werte] bei den Kombinationen bedeuten, daß die angegebenen Wirkstoffe gemeinsam in den angegebenen Konzentrationen das Wachstum der beiden verschiedenen Bakterienstämme bereits hemmen.

Pasteurella multocida = assay: as above; assay type: cell-based; settings: single substance; inhibits bacterial growth for 24 hours
From the text: as §1, §2

[2] = system: Bordatella bronchiseptica; settings: relatively high doses needed; J. Am. Vet. Med. Assoc., 6 [1979], 597-600; cited from earlier work
[3] = Blood plasma concentration reached in in vivo investigations; settings: Chlorchinaldol alone, very poorly absorbed, therapeutic effect said to need about 15 bis 20 p/ml, read-out: Konzentration im Blutplasma
From the text: (§3) Obwohl jeder der obigen Wirkstoffe eine antibakterielle Wirkung hat, sind verhältnismäßig hohe Dosen von 2-[Methoxycarbonylhydrazono)-methylen]-chinoxalin-1,4-dioxyd {Carbadox®} und 2,4-Diamino-5-[3',4',5'-tri-(methoxy)-benzyl] pyrimidin {Trimethoprim} bei alleiniger Verwendung derselben erforderlich. Was 2-(Methyl)-5,7-di-(chlor)-8-(hydroxy)-chinolin {Chlorchinaldol} betrifft, ist dieses eine bekannte Verbindung mit einer milden baktericiden und fungiciden Wirkung. Sie wird in erster Linie für dermatologische Zwecke, zur Behandlung von Hautinfektionen, verwendet. Obwohl bei 2-(Methyl)-5,7-di-(chlor)-8-(hydroxy)-chinolin (Chlorchinaldol) der in vitro bestimmte Wert der Mindesthemmkonzentration sehr niedrig ist, weshalb eine hohe Wirksamkeit zu erwarten wäre, ist es an sich zum Beispiel gegen Schnupfen unwirksam, wobei bei Untersuchungen in vivo die therapeutisch wirksame Dosis nicht erreicht wurde. 2-(Methyl)-5,7-di-(chlor)-8-(hydroxy)-chinolin (Chlorchinaldol) wird sehr schlecht absorbiert, weshalb im Blutplasma eine Konzentration von höchstens […] erreicht wird. Zur therapeutischen Wirkung wird jedoch eine wesentlich höhere Konzentration, nämlich etwa 15 bis […], gebraucht. Mit 2-(Methyl)-5,7-di-(chlor)-8-(hydroxy)-chinolin {Chlorchinaldol} allein wird also die zur Therapie erforderliche Konzentration im Plasma nicht erreicht. […]

Schnupfen = assay: Efficacy against Schnupfen in in vivo investigations; settings: Chlorchinaldol alone; therapeutically effective dose not reached in vivo
From the text: as §3

Compound | Mindesthemmkonzentration durch Chlorchinaldol in Kombination verringert auf [1] | Werte der Mindesthemmkonzentration [MIC-Werte] in mg/l in Bezug auf die Bakterienstämme Bordatella bronchiseptica [1] | Werte der Mindesthemmkonzentration [MIC-Werte] in mg/l in Bezug auf die Bakterienstämme Pasteurella multocida (Pasteurella multocida) | Ergebnisse der Behandlung mit Bordatella bronchiseptica infizierter Tiere [2] | Cmax [3] [ng/mL] | Wirksamkeit gegen Schnupfen (Schnupfen)
COC(=O)NN=Cc1c[n+]([O-])c2ccccc2[n+]1[O-] [Carbadox®, 2-[(Methoxycarbonylhydrazono)-methylen]-chinoxalin-1,4-dioxyd] | 1/10 | 50 mg/L | 10 mg/L | verhältnismäßig günstige Ergebnisse | – | –
CN(C)[C@@H]1C(O)=C(C(N)=O)C(=O)[C@@]2(O)C(O)=C3C(=O)c4c(O)cccc4[C@@](C)(O)[C@H]3[C@H](O)[C@@H]12 [Oxytetracyclin, 4-Dimethylamino-3,5,6,10,12,12a-hexahydroxy-6-methyl-1,11-dioxo-1,4,4a,5,5a,6,11,12a-octahydro-naphthacen-2-carbonsäureamid] | 1/10 | 5 mg/L | 5 mg/L | – | – | –
COc1cc(Cc2cnc(N)nc2N)cc(OC)c1OC [Trimethoprim, 2,4-Diamino-5-[3',4',5'-tri-(me-thoxy)-benzyl]-pyrimidin] | 1/10 | 50 mg/L | 50 mg/L | – | – | –
Cc1ccc2c(Cl)cc(Cl)c(O)c2n1 [Chlorchinaldol, 2-(Methyl)-5,7-di-(chlor)-8-(hydroxy)-chinolin] | – | 0,5 mg/l | 0,5 mg/l | – | ≤ 5000 | unwirksam
